Test results published in patent US12252472B1, “Barbituric acid derivatives, their preparation and use thereof as leukocyte transmigration inhibitors and for treating inflammatory diseases, autoimmune diseases and cancer” (BAR-ILAN UNIVERSITY, priority 2017, dated 2025).

Experiments:
[1] = system: primary human monocytes on TNF-alpha-activated HUVECs; experiment: Shear flow assay: monocyte adhesion and transmigration on TNFα-activated HUVECs; type: cell-based; conditions: for Level of Transmigration Blockage (%) / Monocyte adhesion / inhibition at 30 µM: 30 μM; for Level of Transmigration Blockage (%): monocytes on TNF-activated HUVECs under flow 0.05 Pa; for Monocyte adhesion: flow 0.05 Pa for 30 minutes; for inhibition at 30 µM: Table 2, read-out: monocyte-rolling inhibition
Excerpt: A flow assay that allows detailed analysis of individual leukocyte interactions with endothelial cells (ECs), described in Bradfield et al. (Bradfield et al., 2016, PloS One, July 21; 11(7); Bradfield et al., 2007, Blood. October 1; 110(7):2545-55) was used for evaluation of the biological effects of the compounds according to the invention. This method allows the determination of the possible effects of the compounds on three major phases in leukocyte migration: the capture of free non-bound leukocytes by endothelium, migration of leukocytes on the endothelium surface, and transendothelial migration (transmigration) of human leukocytes through the HUVECs layer. Post transmigrational events can also be monitored by tracking individual leukocytes. […] Human umbilical vein endothelial cells (HUVECs) were cultivated in the plastic channel of the flow chamber, and human leukocyte were flowed over them using a calibrated pump, allowing monocyte capture, adhesion and migration to be monitored.
Human umbilical vein endothelial cells (HUVEC) were isolated by collagenase treatment of umbilical veins as previously described (Wall, R. T., et al., Factors influencing endothelial cell proliferation in vitro. J Cell Physiol, 1978. 96(2): p. 203-13) and maintained in M199 containing 20% fetal calf serum (FCS), 15 μg/mL endothelial cell growth supplement (Upstate Biotechnology, Lake Placid, NY), 100 μg/mL heparin, 50 μM hydrocortisone, and 10 μg/mL vitamin C. Cells were cultured up to a maximum of passage 5.
Peripheral blood mononuclear cells (PBMCs) were first isolated from blood of healthy donors followed by monocyte purification using a monocyte isolation kit (Miltenyi Biotec, Bergisch Gladbach, Germany). Purity and activity of monocytes were controlled by flow cytometry by labelling with anti-CD14 and anti-CD62L. Only populations of 90% or more double positive cells were used.
(§1) Flow assays were conducted as described in a previous study (Bradfield, P. F., et al., JAM-C regulates unidirectional monocyte transendothelial migration in inflammation. Blood, 2007. 110(7): p. 2545-55). HUVECs were cultured at 1×10^5 cells/slide on Ibidi 6-chamber slides (80606; Ibidi) before treatment with TNFα (500 U/mL) for 6-10 hours. An individual chamber outlet was then attached to a calibrated pump (74 900; Cole Partner, Vernon Hills, IL) and flow was generated by perfusing wash buffer (M199 with 0.15% BSA) or a monocyte suspension (2.5×10^6 cells/mL) over the HUVEC monolayer. The flow rate was representative of shear rates in small venules (0.05 Pa). Observations made using phase-contrast microscopy (Model: Axiovert 100; Objective: 20×/0.3 NA air; Carl Zeiss) were recorded using a high-resolution camera (D70; Nikon, Zurich, Switzerland). Individual images were recorded every 30 seconds with Nikon capture software (v4.2) and compiled into movie sequences using Adobe Photoshop (CS6) and Image J (v1.5d), allowing analysis of individual monocytes over large areas. The tested compounds, e.g. compounds of the general Formula (I), were maintained at the specified concentration in all wash buffers throughout the course of the experiment. The compounds were preincubated separately on both HUVECs and monocytes 15 minutes prior to flow co-culture. HUVEC monolayers were washed for 10 minutes prior to a compound wash-in step to allow for this preincubation period. The monocyte suspension was then perfused over HUVECs for 4 minutes followed by 20 to 60 minutes with wash buffer. Time-lapse recording was started upon monocyte first-contact with the monolayer. Monocyte adhesion data are presented as the total number of monocytes per unit field. Transmigration events are presented as a percentage of total monocytes captured from flow per unit field. All experiments were carried out using quadruplicate fields and are presented as a mean value (±SEM).
A timeline is shown to represent the positioning and timing of an individual monocyte during movie analysis (marked ‘Timeline’). […]

B cells = experiment: B-lymphocyte adhesion and transmigration, MesenFlow assay; type: cell-based; conditions: 30 μg/ml
Method: as §1, with “HUVEC monolayers were washed for 10 minutes prior to a compound wash-in step to allow for this preincubation period. The monocyte suspension was then perfused over HUVECs for 4 minutes followed by 20 to 60 minutes with wash buffer. Time-lapse recording was started upon monocyte first-contact with the monolayer. Monocyte adhesion data are presented as the total number of monocytes per unit field. Transmigration events are presented as a percentage of total monocytes captured from flow per unit field. All experiments were carried out using quadruplicate fields and are presented as a mean value (±SEM).” left out

Compound: COC(=O)c1ccc(COc2cccc(C=C3C(=O)NC(=O)NC3=O)c2)cc1 [Formula 1, Methyl 4-((3-((2,4,6-trioxo-tetrahydropyrimidin-5(2H)-ylidene)methyl)phenoxy)methyl) benzoate]
- Level of Transmigration Blockage (%) [1]: 81%

Compound: COC(=O)c1ccc(COc2c(C)cc(C=C3C(=O)NC(=O)NC3=O)cc2C)cc1 [Formula 4, Methyl 4-((2,6-dimethyl-4-((2,4,6-trioxotetrahydro-pyrimidin-5(2H)ylidene)methyl)phenoxy)methyl) benzoate]
- Level of Transmigration Blockage (%) [1]: 75%

Compound: O=C1NC(=O)C(=Cc2ccccc2OCc2cccc(C(=O)O)c2)C(=O)N1 [Formula 6, 3-((2-((2,4,6-trioxo-tetrahydropyrimidin-5(6H)-ylidene)methyl)phenoxy)methyl)benzoic acid]
- Level of Transmigration Blockage (%) [1]: 78%

Compound: COC(=O)c1cccc(COc2cccc(C=C3C(=O)NC(=O)NC3=O)c2)c1 [Formula 9, Methyl 3-((3-((2,4,6-trioxo-tetrahydropyrimidin-5(2H)-ylidene)methyl)phenoxy)methyl) benzoate]
- Monocyte adhesion [1]: unaffected
- Level of Transmigration Blockage (%) [1]: 98%
- inhibition at 30 µM ([1]; Homo sapiens, HUVEC): > 90%

Compound: O=C1NC(=O)C(=Cc2c3ccccc3cc3ccccc23)C(=O)N1 [Formula 10, 5-(anthracen-9-ylmethylene)pyrimidine-2,4,6(1H,3H,5H)-trione]
- Monocyte adhesion [1]: unaffected
- Level of Transmigration Blockage (%) [1]: 92%
- inhibition at 30 µM ([1]; Homo sapiens, HUVEC): > 90%
- IC50 ([1]; Homo sapiens, HUVEC, flow 0.05 Pa, n=3): 300 nM
- Emax ([1]; Homo sapiens, HUVEC, monocyte transmigration inhibition, read-out: maximal efficacy): 40%
- concentration below which not active on monocyte transmigration ([1]; dose response, 100 μM to 3 nM): below 30 nM
- monocyte transmigration ([1]; dose response, concentrations higher than 30 nM): partial effect
- monocyte transmigration ([1]; dose response, high concentrations (100 μM)): Total blocking
- time of the maximal effect ([1]; monocyte transmigration, read at 10, 15, 20 and 25 minutes): 25 min

Compound: Tysabri®: an antibody against alpha 4 integrin, used as a positive control [reference compound]
- number of transmigrated B cells (B cells): no net effect
